Results on five compounds are retold here after patent EP2945948B1, “CRYSTALLINE FORM II OF ANAGRELIDE HYDROCHLORIDE MONOHYDRATE” (Synthon BV, priority 2013, dated 2014).

Entries after “also recorded” stand apart in the source; their conditions may differ. Where a name gives a salt, the structure may show the parent alone.

For series [1] the following is noted: cited from earlier work.
Series [2] in a line: Stability of form II: suspension stirred in solvent, solid analysed by XRPD. It counts as physicochemical. How it is done:
2.0 g of anagrelide hydrochloride monohydrate form II was suspended in 20 ml solvent. […] At certain time points, a small amount of the suspension was filtered over a P3-glass filter (reduced pressure). The solids were air-dried overnight at RT.
(§1) In the above examples, the XRPD patterns were recorded on a Bruker-AXS D8 vario (Θ/2Θ geometry, reflection mode, Vantec PSD detector) operating at the following settings: […]

A short description of series [3]: Stability of form I: suspension stirred in solvent, solid analysed by XRPD. It counts as physicochemical. To be noted: RT. As for the experimental part: […] The suspension was filtered over a P3-glass filter (reduced pressure), washed with solvent and dried.
as §1

Series [4] can be described thus: Polymorphic stability on exposure to air / air-drying. It counts as physicochemical.
The nature of series [5]: Conversion study in ethanol at specified stirring temperature, XRPD. Type of series: physicochemical. To be noted: for Crystal form (XRPD): ethanol, stirring time 2 hours only. As for the experimental part: The suspension was filtered over a P3-glass filter (reduced pressure), washed with solvent and dried.
as §1

The nature of series [6]: Instant solubility in buffers, Milli-Q water and 0.1 M HCl (HPLC-UV). Type of series: physicochemical. The settings on record: USP acetate buffer pH 4.5, USP phosphate buffer pH 6.8, Milli-Q water and 0.1 M HCl; room temperature; 0-60 minutes; Figure 5; hydrochloride monohydrate. How it is done:
The instant solubility of anagrelide hydrochloride monohydrate form II, form I and free base was determined in USP acetate buffer pH 4.5, USP phosphate buffer pH 6.8, Milli-Q water (herein below "MQ") and 0.1 M HCl. About 30 mg of the drug substance was transferred into a clear 50 ml sample jar and a stirring bar was added. Subsequently 30 ml of test medium was added; the vial was closed and placed on a magnetic stirrer. Under constant stirring at room temperature samples of 2 ml were taken at t=0, 10, 20, 30, 40, 50, and 60 minutes. The samples were immediately filtered through a 0.45 µm syringe disk filter (first ml was discarded) and analyzed at once with the HPLC-UV method described in Table 1. The solubility was calculated in mg/ml anagrelide free base against an external standard (AGL.hcl.mhy.120310) dissolved in acetonitrile/milli-Q (ACN/MQ) (50:50). Table 1 HPLC-UV parameters used for instant solubility testing

As for `O=C1CN2Cc3c(ccc(Cl)c3Cl)N=C2N1` [Anagrelide hydrochloride monohydrate], the solubility in water entry in series [1] is given as “very slightly soluble”. Moreover, the “converts into anagrelide free base” value in series [2] (in water) lay in the range of 30 to 180 min.
`O=C1CN2Cc3c(ccc(Cl)c3Cl)N=C2N1` [form I, anagrelide hydrochloride monohydrate]: the XRPD entry is reported as “Form I + II” in series [3] (2-propanol, 16 hours); “Form II” in series [3] (Acetone, 2 days); “Anagrelide base” in series [3] (Demi-water, 30 min); “Anagrelide base” in series [3] (Demi-water, 180 min); “Form II” in series [3] (Ethanol, 30 min); “Form II” in series [3] (Ethanol, 16 hours). In series [3] (Ethyl acetate, 2 days), the XRPD result was “Form II”.
Take `O=C1CN2Cc3c(ccc(Cl)c3Cl)N=C2N1` [form III, anagrelide hydrochloride monohydrate]: the “stability when exposed to air” value in series [4] (exposed to air) was “converts into form I or a mixture of forms I and II”.
With `Cl.O.O=C1CN2Cc3c(ccc(Cl)c3Cl)N=C2N1` [anagrelide hydrochloride monohydrate], the “Crystal form (XRPD)” value in series [5] (stirring temperature 72.5 °C) is recorded as “I + II”; in series [5] (stirring temperature 75 °C) it was “mostly I, some II left”.
Consider `O=C1CN2Cc3c(ccc(Cl)c3Cl)N=C2N1` [form II, anagrelide hydrochloride monohydrate], for which the “instant solubility compared to form I” value in series [6] was “more soluble; also recorded: higher”. For the same compound, the transition point result in series [5] (form II / form I, suspension in ethanol) was “around 72.5 °C”. Besides, the stable at temperatures result in series [5] (suspension in ethanol) was “below 70 °C”. Besides, the XRPD entry in series [2] (2-propanol, 30 min, RT) was “Form II”; in series [2] (2-propanol, 60 min, RT) it was “Form II”; in series [2] (2-propanol, 120 min, RT) it was “Form II”; in series [2] (2-propanol, overnight, RT) it was “Form II”; in series [2] (Demi-water, 30 min, RT), “Form II + anagrelide base”; in series [2] (Demi-water, 60 min, RT) it was “Form II + anagrelide base”. In addition, the XRPD result is “Form II + anagrelide base” in series [2] (Demi-water, 120 min, RT); “Anagrelide base” in series [2] (Demi-water, 180 min, RT); “Form II” in series [2] (Ethanol, 30 min, RT); “Form II” in series [2] (Ethanol, 60 min, RT); “Form II” in series [2] (Ethanol, 120 min, RT); “Form I” in series [2] (Ethanol, 3 hours, reflux). The XRPD entry in series [2] (Ethanol, overnight, RT) is on record as “Form II”. The polymorphic stability entry in series [2] (ambient temperature, ethanol, 2-propanol, acetone, ethyl acetate, compared with form I) is “polymorphically stable at ambient temperature and even more stable than form I”. Moreover, in series [2] (stirred in demi-water for up to 180 minutes, compared with form I), the “stability against aqueous hydrolysis” value is listed as “more stable against aqueous hydrolysis than form I”. The “polymorphic change on air-drying” value in series [4] (air-drying at ambient temperature) is “does not cause any polymorphic change”.
